In PubChem BioAssay (NCI):
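In this assay, cells in 96-well plates receive the compound at five concentrations for 48 hours. Endpoints are linearly interpolated between the surrounding concentrations. GI50 marks 50% less growth. At the TGI there is no net growth.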

What was measured:
Experiment in all cases: inhibition of tumour cell growth, NCI panel, 48 h; in the data active = GI50 below about 0.43 µM; inactive = the rest
[1] = system: SK-MEL-2 melanoma
[2] = system: LOX IMVI melanoma
[3] = system: CAKI-1 renal
[4] = system: NCI/ADR-RES ovarian
[5] = system: SW-620 colon
[6] = system: MCF7 breast
[7] = system: SK-OV-3 ovarian
[8] = system: SF-295 CNS
[9] = system: T-47D breast
[10] = system: RXF 393 renal
[11] = system: HL-60(TB) leukemia
[12] = system: DU-145 prostate
[13] = system: MALME-3M melanoma
[14] = system: MOLT-4 leukemia
[15] = system: HCC-2998 colon
[16] = system: SF-539 CNS
[17] = system: HS 578T breast
[18] = system: M14 melanoma
[19] = system: MDA-MB-435
[20] = system: PC-3 prostate
[21] = system: RPMI-8226 leukemia
[22] = system: KM12 colon
[23] = system: OVCAR-8 ovarian
[24] = system: SK-MEL-28 melanoma
[25] = system: HOP-62 NSCLC
[26] = system: EKVX NSCLC
[27] = system: U251 CNS
[28] = system: A549 NSCLC
[29] = system: MDA-MB-468 breast
[30] = system: SR leukemia
[31] = system: MDA-MB-231 breast
[32] = system: OVCAR-3 ovarian
[33] = system: COLO 205 colon
[34] = system: HCT-15 colon
[35] = system: HCT-116 colon
[36] = system: CCRF-CEM leukemia
[37] = system: NCI-H226 lung
[38] = system: UACC-257 melanoma
[39] = system: OVCAR-5 ovarian
[40] = system: NCI-H23 lung
[41] = system: HT29 colon
[42] = system: SF-268 CNS
[43] = system: A498 renal
[44] = system: K-562 leukemia
[45] = system: BT-549 breast
[46] = system: UACC-62 melanoma
[47] = system: TK-10 renal
[48] = system: HOP-92 NSCLC
[49] = system: IGROV1 ovarian
[50] = system: NCI-H460 lung
[51] = system: NCI-H522 lung
[52] = system: SK-MEL-5 melanoma
[53] = system: SNB-19 CNS
[54] = system: UO-31 renal
[55] = system: SN12C renal

N/C(=N\c1nc2ccc([N+](=O)[O-])cc2s1)NC(=O)Nc1ccccc1Cl
50.2 µM: TGI [1]
28.2 µM: TGI [7] | TGI [16]
38 µM: TGI [43]
3.46 µM: TGI [35]
6.16 µM: TGI [32]
6.18 µM: TGI [27]
90.9 µM: TGI [8]
7.77 µM: TGI [19]
41.5 µM: TGI [51]
17.5 µM: TGI [48]
76.2 µM: TGI [33]
> 100 µM: TGI [2] | TGI [3] | TGI [4] | TGI [5] | TGI [6] | TGI [9] | TGI [10] | TGI [11] | TGI [12] | TGI [13] | TGI [14] | TGI [15] | TGI [17] | TGI [20] | TGI [21] | TGI [22] | TGI [23] | TGI [24] | TGI [26] | TGI [28] | TGI [30] | TGI [34] | TGI [36] | TGI [37] | TGI [38] | TGI [39] | TGI [40] | TGI [41] | TGI [42] | TGI [44] | TGI [45] | TGI [47] | TGI [49] | TGI [53] | TGI [54] | TGI [55]
38.5 µM: TGI [18]
inactive: GI50 [1] 23 µM | GI50 [2] 9.3 µM | GI50 [3] 3.58 µM | GI50 [4] 3.97 µM | GI50 [5] 5.11 µM | GI50 [6] 7.69 µM | GI50 [7] 6.63 µM | GI50 [8] 17.6 µM | GI50 [9] 2.71 µM | GI50 [10] 3.79 µM | GI50 [11] 22.4 µM | GI50 [12] 5.63 µM | GI50 [13] 4.56 µM | GI50 [14] 40 µM | GI50 [15] 61.4 µM | GI50 [16] 4.55 µM | GI50 [17] 12.1 µM | GI50 [18] 13.1 µM | GI50 [19] 2.26 µM | GI50 [20] 28.9 µM | GI50 [21] 72.2 µM | GI50 [22] 6.95 µM | GI50 [23] 3.9 µM | GI50 [24] 26.2 µM | GI50 [25] 10.8 µM | GI50 [26] 12.4 µM | GI50 [27] 2.3 µM | GI50 [28] 3.09 µM | GI50 [29] 3.16 µM | GI50 [30] 2.17 µM | GI50 [31] 2.45 µM | GI50 [32] 2.41 µM | GI50 [33] 6.91 µM | GI50 [34] 6.92 µM | GI50 [35] 1.69 µM | GI50 [36] 46.9 µM | GI50 [37] 5 µM | GI50 [38] 45.5 µM | GI50 [39] 4.12 µM | GI50 [40] 4.55 µM | GI50 [41] 13.9 µM | GI50 [42] 15.1 µM | GI50 [43] 4.53 µM | GI50 [44] 3.56 µM | GI50 [45] 4.07 µM | GI50 [46] 14.9 µM | GI50 [47] 3.6 µM | GI50 [48] 2.97 µM | GI50 [49] 9.77 µM | GI50 [50] 3.1 µM | GI50 [51] 3.46 µM | GI50 [52] 11.4 µM | GI50 [53] 10.2 µM | GI50 [54] 3.19 µM | GI50 [55] 4.2 µM
38.6 µM: TGI [52]
8.71 µM: TGI [50]
94.4 µM: TGI [25]
66.6 µM: TGI [46]
13.1 µM: TGI [29]
6.88 µM: TGI [31]
